Patent US20100130579A1, “CANCER THERAPY” (Georgetown University, priority 2006, published 2010)

Key:
LNCaP and PC3 cells [1] = conditions: 3 μg/ml; cited from earlier work
cyclin D1 protein = test: Western blot of cyclin D1 protein levels; type: cell-based, human; conditions: 3 days
Protocol: FIGS. 3A-3C. Mahanine down-regulates cyclin D1 protein in prostate cancer cells. FIG. 3A and FIG. 3B: Western blots showing cyclin D1 protein levels in PC3 (A) and LNCaP (B) cells treated with 0, 1, 2 and 3 μg/ml mahanine for 3 days. Protein lysates (50 μg) from PC3 and LNCaP cells were resolved on 12% SDS-PAGE, and immunoblots were probed with antibodies to cyclin D1. All immunoblots were re-probed with β-actin antibodies to ensure equal loading. Representative photographs from an experiment that was repeated thrice. Quantitative analyses of relative levels of cyclin D1 proteins are shown on the right panels. […] FIG. 3C: PC3 cells were plated on chamber slides and treated with or without 2 μg/ml mahanine for 2 days. Cells were then fixed in methanol, incubated with cyclin D1 antibody overnight, Alexi Fluor-conjugated secondary antibodies for 1 hour and counter stained with propidium iodide (PI). Slides were then mounted and examined using a fluorescence microscope. Photographs were taken at the same magnification (×20) and then transported to Photoshop. Representative photographs from an experiment that was repeated twice.
Western blots analysis: Protein lysates were prepared from PC3 and LNCaP cells that were treated with or without mahanine. […] Band intensities were quantified by utilizing ImageJ software (NIH, Bethesda, Md.).

Akt = conditions: prostate cancer cells; cited from earlier work
LNCaP and PC3 cells [2] = conditions: androgen-responsive LNCaP and androgen-independent PC3 cells; cited from earlier work
cyclin D1 promoter = test: Cyclin D1 promoter activity (luciferase) assay; type: cell-based, human; conditions: PC3 cells
Protocol: FIGS. 6A-6B. Mahanine regulates the transcriptional activity of cyclin D1 and RASSF1A siRNA prevents mahanine-induced repression of cyclin D1 transcriptional activity. FIG. 6A: PC3 cells were transfected with 200 ng of full-length cyclin D1 promoter luciferase plasmids (−1745cyclin D1-Luc) or basic luciferase (PA3-Luc) plasmids and 10 ng of Renilla luciferase (pRL-TK-Luc) plasmids. Twenty-four hours after transfection cells were treated with 0, 1 and 2 μg/ml mahanine for 48 hours in normal growth media. FIG. 6B: PC3 cells were transfected with 200 ng of full-length cyclin D1 promoter luciferase plasmids or basic luciferase plasmids and 10 ng of Renilla luciferase (pRL-TK-Luc) plasmids with 200 ng of RASSF1A or RASSF1A siRNA with or without 2 μg/ml mahanine for 48 hours in normal growth media. After treatment, cells were harvested, and luciferase assays were performed. Relative cyclin D1 promoter activity was determined after normalization with Renilla luciferase activity. […]
Cyclin D1 promoter activity assay: PC3 cells were transfected with 200 ng of cyclin D1 promoter-luciferase (−1745-cyclin D1-Luc) (35) construct using GeneJammer transfection reagent (Stratagene, La Jolla, Calif.). […] After 48 hours, luciferase activity was measured in cell lysates in a microplate luminometer using the Dual Luciferase Assay kit (Promega, Madison, Wis.) according to the manufacturer's protocol. […]

PC3 cells = test: Flow cytometric cell cycle analysis, PC3; type: cell-based, human; conditions: 3 days
Protocol: (§1) FIG. 4A-4B. Mahanine arrests prostate cancer cells at G0/G1 phase of cell cycle. To determine if down-regulation of cyclin D1 by mahanine treatments affect cell cycle, PC3 4(A) and LNCaP 4(B) cells were treated with 0, 1 and 2 μg/ml mahanine for 3 days. After treatment, flow cytometric analyses were performed. The percentage of cells in the G0/G1, S and G2/M-phase of the cell cycle were shown on right. FACS analysis of PC3 and LNCaP prostate cancer cells with vehicle or 2 μg/ml mahanine are shown in the left panel. Values are the mean from two independent experiments in duplicates.
(§2) Since cyclin D1 regulates cell cycle progression at the G0/G1 phase, Aplicants examined the cell cycle profile of PC3 and LNCaP cells in the presence of various concentrations of mahanine.

LNCaP cells = test: Flow cytometric cell cycle analysis, LNCaP; type: cell-based, human; conditions: mahanine 3 days
Protocol: as §1, §2

cyclin A1 = test: RT-PCR of cyclin A1 mRNA in prostate cancer cells; type: cell-based, human; conditions: PC3 or LNCaP cells, mahanine treatment

Q: What does the source list for `CC(C)=CCC[C@@]1(C)C=Cc2c(c(C)cc3c2[nH]c2cc(O)ccc23)O1` [mahanine]?
A: apoptosis (LNCaP and PC3 cells [1]): induces apoptosis; cyclin D1 protein levels decreased to (cyclin D1 protein; PC3 cells, 1 μg/ml, p<0.01): about 40%; cyclin D1 protein (Western blot) (cyclin D1 protein; PC3 cells, 1, 2 and 3 μg/ml): dose-dependent decrease; Akt activation state (Akt): deactivated Akt; growth of prostate cancer cells (LNCaP and PC3 cells [2]): inhibits growth in a dose-dependent manner; cyclin D1 promoter activity (cyclin D1 promoter; 1 and 2 μg/ml mahanine, 48 hours, P<0.01): decreased cyclin D1 promoter activity in a dose-dependent manner; cyclin D1 promoter activity relative to basic vector transfected cells (cyclin D1 promoter; full-length cyclin D1 promoter luciferase construct): approximately 20 fold; cells in S-phase (PC3 cells; 1 μg/ml, vehicle 7.5%): decreased the S-phase; cells in G0/G1-phase (PC3 cells; 1 μg/ml, vehicle 26%): increased the G0/G1-phase; cells in G0/G1-phase (PC3 cells; 2 μg/ml): further increased; cells in S-phase (PC3 cells; 2 μg/ml): completely abolished; cells in S-phase (LNCaP cells; decreased from 25.6% (control)): 6.1%; cells in G0/G1 phase (LNCaP cells; increased from 63.7% (control)): 90.7%; cyclin A1 expression (RT-PCR) (cyclin A1): did not alter the expression
